Results from patent US8481539B2, “Alkynylaryl compounds and salts thereof, pharmaceutical compositions comprising same, methods of preparing same and uses of same” (Bayer Intellectual Property GmbH, priority 2007, dated 2013).

Assays:
Tie-2 = target: T1, Tie-2 (Homo sapiens, UniProt Q02763); assay: Tie-2-Kinase HTRF-Assay (assay 2); type: biochemical; conditions: pIC50 class; 10 μM ATP; read-out: Enzymatic Tie 2 activity (assay 2)
T1 construct: fusion protein of GST and the intracellular domains of Tie-2; GST; made in house; host or cells: insect cells (Hi-5)
T1 sequence (Q02763 770-1124 limits assumed, species assumed): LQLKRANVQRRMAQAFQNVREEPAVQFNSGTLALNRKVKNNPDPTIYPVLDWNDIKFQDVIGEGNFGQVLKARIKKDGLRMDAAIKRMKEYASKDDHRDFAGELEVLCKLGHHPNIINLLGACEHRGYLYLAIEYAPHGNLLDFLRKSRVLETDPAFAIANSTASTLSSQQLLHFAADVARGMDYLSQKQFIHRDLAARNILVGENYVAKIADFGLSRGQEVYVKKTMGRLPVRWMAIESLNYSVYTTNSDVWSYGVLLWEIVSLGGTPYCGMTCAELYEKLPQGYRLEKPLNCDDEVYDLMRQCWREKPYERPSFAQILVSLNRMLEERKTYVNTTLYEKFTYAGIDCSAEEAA
Description: Tie2-inhibitory activity of compounds of the present invention was quantified employing two Tie2 HTRF assay as described in the following paragraphs.
A recombinant fusion protein of GST and the intracellular domains of Tie-2, expressed in insect cells (Hi-5) and purified by Glutathion-Sepharose affinity chromatography was used as kinase. Alternatively, commercially available GST-Tie2-fusion protein (Upstate Biotechnology, Dundee, Scotland) can be used As substrate for the kinase reaction the biotinylated peptide biotin-Ahx-EPKDDAYPLYSDFG (C-terminus in amid form) was used which can be purchased e.g. from the company Biosynthan GmbH (Berlin-Buch, Germany). Detection of phosphorylated product is achieved specifically by a trimeric detection complex consisting of the phosphorylated substrate, streptavidin-XLent (SA-XLent) which binds to biotin, and Europium Cryptate-labeled anti-phosphotyrosine antibody PT66 which binds to phosphorylated tyrosine.
Tie-2 (3.5 ng/measurement point) was incubated for 60 min at 22° C. in the presence of 10 μM adenosine-tri-phosphate (ATP) and 1 μM substrate peptide (biotin-Ahx-EPKDDAYPLYSDFG-NH2) with different concentrations of test compounds (0 μM and concentrations in the range 0.001-20 μM) in 5 μl assay buffer [50 mM Hepes/NaOH pH 7, 10 mM MgCl2, 0.5 mM MnCl2, 1.0 mM dithiothreitol, 0.01% NP40, protease inhibitor mixture (“Complete w/o EDTA” from Roche, 1 tablet per 2.5 ml), 1% (v/v) dimethylsulfoxide]. The reaction was stopped by the addition of 5 μl of an aqueous buffer (25 mM Hepes/NaOH pH 7.5, 0.28% (w/v) bovine serum albumin) containing EDTA (90 mM) and the HTRF (Homogeneous Time Resolved Fluorescence) detection reagents streptavidine-XLent (0.2 μM, from Cis Biointemational, Marcoule, France) and PT66-Eu-Chelate (0.3 ng/μl; a europium-chelate labelled anti-phospho-tyrosine antibody from Perkin Elmer).
(§1) The resulting mixture was incubated 1 h at 22° C. to allow the binding of the biotinylated phosphorylated peptide to the streptavidine-XLent and the PT66-Eu-Chelate. Subsequently the amount of phosphorylated substrate peptide was evaluated by measurement of the resonance energy transfer from the PT66-Eu-Chelate to the streptavidine-XLent. Therefore, the fluorescence emissions at 620 nm and 665 nm after excitation at 350 nm was measured in a HTRF reader, e.g. a Rubystar (BMG Labtechnologies, Offenburg, Germany) or a Viewlux (Perkin-Elmer). The ratio of the emissions at 665 nm and at […] was taken as the measure for the amount of phosphorylated substrate peptide. The data were normalised (enzyme reaction without inhibitor=0 (% inhibition, all other assay components but no enzyme=100% inhibition) and IC50 values were calculated by a 4 parameter fit using an inhouse software.

[1] = target: T2, human insuline receptor (Ins-R) (Homo sapiens, UniProt P06213); assay: Insulin Receptor HTRF Assay (assay 4); type: biochemical; conditions: pIC50 class; 10 μM ATP; read-out: Enzymatic InsR activity (assay 4)
T2 construct: GST-tagged recombinant kinase domain of the human insuline receptor; GST; purchased ProQinase, Freiburg, Germany; host or cells: SF-9 cells
T2 sequence (P06213 1023-1298 limits assumed): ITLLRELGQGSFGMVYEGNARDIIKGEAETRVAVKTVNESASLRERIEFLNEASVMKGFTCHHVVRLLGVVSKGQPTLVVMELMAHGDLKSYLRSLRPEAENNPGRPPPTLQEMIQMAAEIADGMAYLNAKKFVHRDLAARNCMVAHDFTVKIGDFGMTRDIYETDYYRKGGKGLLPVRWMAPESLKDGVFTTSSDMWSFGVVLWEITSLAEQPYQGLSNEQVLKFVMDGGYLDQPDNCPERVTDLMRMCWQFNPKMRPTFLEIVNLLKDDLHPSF
Experimental: Assay 4: Insulin Receptor HTRF Assay
Inhibitory activity of compounds against the kinase activity of the insulin receptor was quantified employing the Ins-R HTRF assay as described in the following paragraphs.
GST-tagged recombinant kinase domain of the human insuline receptor (Ins-R, purchase from ProQinase, Freiburg, Germany) expressed in SF-9 cells was used as kinase. As substrate for the kinase reaction biotinylated poly-(Glu, Tyr) (Cis biointernational, France) was used.
Ins-R was incubated for 20 min at 22° C. in the presence of different concentrations of test compounds in 5 μl assay buffer [50 mM Hepes/NaOH pH 7, 15 mM MnCl2, 1 mM dithiothreitol, 0.1 μM sodium ortho-vanadate, 0.015% (v/v) PEG20000, 10 μM adenosine-tri-phosphate (ATP), 0.3 μg/ml substrate, 1% (v/v) dimethylsulfoxide]. The concentration of Ins-R was adjusted depending of the activity of the enzyme lot and was chosen appropriate to have the assay in the linear range, typical concentrations were in the range of 10 pg/μl. The reaction was stopped by the addition of 5 μl of a solution of HTRF detection reagents (0.1 μM streptavidine-XLent and 1 nM PT66-Eu-Chelate, an europium-chelate labelled anti-phospho-tyrosine antibody from Perkin Elmer) in an aqueous EDTA-solution (80 mM EDTA, 0.2% (w/v) bovine serum albumin in 50 mM HEPES/NaOH pH 7.0).
as §1, with “substrate” for “substrate peptide”, “substrate.” for “substrate peptide.”, “inhibitor=0%” for “inhibitor=0 (%”

IC50 (Tie-2) [nM]	IC50 [1] [nM]	SMILES
< 1000	≥ 10000	Cn1ncc2c(C#Cc3cccc(NC(=O)c4cccc(C(F)(F)F)c4)c3)cncc21 [Example 1.5, N-[3-(1-Methyl-1H-pyrazolo[3,4-c]pyridin-4-ylethynyl)-phenyl]-3-trifluoromethyl-benzamide]
< 1000	≥ 10000	Cc1ccc(NC(=O)c2cccc(C(F)(F)F)c2)cc1C#Cc1cncc2c1cnn2C [Example 1.6, N-[4-Methyl-3-(1-methyl-1H-pyrazolo[3,4-c]pyridin-4-ylethynyl)-phenyl]-3-trifluoromethyl-benzamide]
< 1000	≥ 10000	Cn1ncc2c(C#Cc3cc(NC(=O)c4cccc(C(F)(F)F)c4)ccc3F)cncc21 [Example 1.9, N-[4-Fluoro-3-(1-methyl-1H-pyrazolo[3,4-c]pyridin-4-ylethynyl)-phenyl]-3-trifluoromethyl-benzamide]
< 1000		Cn1ncc2c(C#Cc3cccc(NC(=O)Nc4ccccc4)c3)cncc21 [Example 2.1, 1-[3-(1-Methyl-1H-pyrazolo[3,4-c]pyridin-4-ylethynyl)-phenyl]-3-phenyl-urea]
< 1000		Cc1ccc(NC(=O)Nc2cccc(C(F)(F)F)c2)cc1C#Cc1cncc2c1cnn2C [Example 2.4, 1-[4-Methyl-3-(1-methyl-1H-pyrazolo[3,4-c]pyridin-4-ylethynyl)-phenyl]-3-(3-trifluoromethyl-phenyl)-urea]
